Data from US9433621B2, “Substituted pyridine and pyrimidine derivatives and their use in treating viral infections” (Merck Sharp & Dohme Corp., priority 2010, dated 2016).

Each compound was assayed on HCV replicon (assay: Cell-Based HCV Replicon Assay). Settings: Hepatitis C virus, 72 h; Table IV; replicon cells, day 3, real time PCR; EC90 = concentration for ΔCT=3.2 over baseline; read-out: EC90.
Procedure: Cell-Based HCV Replicon Assay
To measure cell-based anti-HCV activity of the compounds of the present invention, replicon cells were seeded at 5000 cells/well in 96-well collagen I-coated Nunc plates in the presence of the compound of the invention. Various concentrations of a compound of the invention, typically in 10 serial 2-fold dilutions, were added to the assay mixture, the starting concentration of the compound ranging from 25 μM to 1 μM. The final concentration of DMSO was 0.5%, fetal bovine serum was 10%, in the assay media. Cells were harvested on day 3 by the addition of 1× cell lysis buffer (Ambion cat #8721). The replicon RNA level was measured using real time PCR (Taqman assay). The amplicon was located in 5B. The PCR primers were: 5B.2F, ATGGACAGGCGCCCTGA; 5B.2R, […]; the probe sequence was FAM-labeled CACGCCATGCGCTGCGG. GAPDH RNA was used as endogenous control and was amplified in the same reaction as NS5B (multiplex PCR) using primers and VIC-labeled probe recommended by the manufacturer (PE Applied Biosystem). The real-time RT-PCR reactions were run on ABI PRISM® 7900HT Sequence Detection System using the following program: 48′C for 30 min, 95′C for 10 min, 40 cycles of 95′C for 15 sec, 60′C for 1 min. The ΔCT values (CT5B-CTGAPDH) were plotted against the concentration of test compound and fitted to the sigmoid dose-response model using Graph Pad PRISM® software. EC50 was defined as the concentration of inhibitor necessary to achieve ΔCT=1 over the projected baseline; EC90 the concentration necessary to achieve ΔCT=3.2 over the baseline. Alternatively, to quantitate the absolute amount of replicon RNA, a standard curve was established by including serially diluted T7 transcripts of replicon RNA in the Taqman assay. All Taqman reagents were from PE Applied Biosystems. Such an assay procedure was described in detail in e.g. Malcolm et al., Antimicrobial Agents and Chemotherapy 50: 1013-1020 (2006).
HCV Replicon assay data for compounds of the invention that were tested were obtained using the above method.

Question: CCOc1cc2cc(-c3c(C)nc(NCC4CC4)nc3N[C@@H]3C[C@H](C(C)(C)O)[C@@H](O)[C@H]3O)oc2c(C)n1 [Example 2511] was tested. Which EC90 did it give?
Answer: Its EC90 is 0.13 µM.

Question: How did the EC90 turn out when CO[C@H](C)CNc1nc(C)c(-c2nc3c(C)nccc3s2)c(N[C@@H]2C[C@H](C(C)(C)O)[C@@H](O)[C@H]2O)n1 [Example 3030] was run?
Answer: The EC90 was 0.104 µM.

Question: Which EC90 does the source give for CO[C@@H](C)CNc1nc(C)c(-c2nc3c(C)nccc3s2)c(N[C@@H]2C[C@H](C(C)(C)O)[C@@H](O)[C@H]2O)n1 [Example 3031] here?
Answer: Its EC90 is 0.104 µM.

Question: With Cc1nc(NCC2CC2)nc(N[C@@H]2C[C@H](C(F)F)[C@@H](O)[C@H]2O)c1-c1nc2c(C)nccc2s1 [Example 3036] as the compound, how does the EC90 read?
Answer: Its EC90 is 0.044 µM.

Question: For Cc1nc(NCC2CC2)nc(N[C@@H]2C[C@H](C(C)(F)F)[C@@H](O)[C@H]2O)c1-c1nc2c(C3CC3)nccc2s1 [Example 3056], which EC90 is on record?
Answer: Its EC90 is 0.007 µM.

Question: With COC[C@@H](C)Nc1nc(C)c(-c2nc3c(C)nccc3s2)c(N[C@@H]2C[C@H](C(C)(C)O)[C@@H](O)[C@H]2O)n1 [Example 3137] as the compound, how does the EC90 read?
Answer: The EC90 was 0.118 µM.

Question: CCC(O)(CC)[C@H]1C[C@@H](Nc2nc(NCC3CC3)nc(C)c2-c2nc3c(C)nccc3s2)[C@H](O)[C@@H]1O [Example 3182] was tested. Which EC90 did it give?
Answer: The EC90 was 0.068 µM.

Question: Which EC90 does the source give for Cc1nc(NCc2c(F)cc(F)cc2F)nc(N[C@@H]2C[C@H](C(C)(C)O)[C@@H](O)[C@H]2O)c1-c1nc2c(C)nccc2s1 [Example 3188] here?
Answer: Its EC90 is 0.021 µM.

Question: Which EC90 does the source give for Cc1nc(NCC2CC(F)(F)C2)nc(N[C@@H]2C[C@H](C(C)(C)O)[C@@H](O)[C@H]2O)c1-c1nc2c(C)nccc2s1 [Example 3239] here?
Answer: Its EC90 is 0.01 µM.

Question: How did the EC90 turn out when Cc1cc2sc(-c3c(C)nc(NCc4c(F)cc(F)cc4F)nc3N[C@@H]3C[C@H](CO)[C@@H](O)[C@H]3O)nc2c(C)n1 [Example 3438] was run?
Answer: The EC90 was 0.011 µM.

Question: For Cc1nc(NC2CCC2)nc(N[C@@H]2C[C@H](CS(C)(=O)=O)[C@@H](O)[C@H]2O)c1-c1nc2c(C3CC3)nccc2s1 [Example 3513], which EC90 is on record?
Answer: The EC90 was 0.054 µM.

Question: With Cc1nc(NCc2c(F)cccc2F)nc(N[C@@H]2C[C@H](CS(C)(=O)=O)[C@@H](O)[C@H]2O)c1-c1nc2c(C3CC3)nccc2s1 [Example 3538] as the compound, how does the EC90 read?
Answer: Its EC90 is 0.007 µM.

Question: How did the EC90 turn out when Cc1nc(NCC2CC2)nc(N[C@@H]2C[C@H](CC(C)(C)O)[C@@H](O)[C@H]2O)c1-c1nc2c(C)nccc2s1 [Example 3552] was run?
Answer: Its EC90 is 0.024 µM.

Question: How did the EC90 turn out when Cc1nc(N[C@H](C)C2CC2)nc(N[C@@H]2C[C@H](CCO)[C@@H](O)[C@H]2O)c1-c1nc2c(C)nccc2s1 [Example 3561] was run?
Answer: Its EC90 is 0.023 µM.

Question: For Cc1nc(NCc2c(F)cc(F)cc2F)nc(N[C@@H]2C[C@H](CS(C)(=O)=O)[C@@H](O)[C@H]2O)c1-c1nc2c(C3CC3)nccc2s1 [Example 3563], which EC90 is on record?
Answer: The EC90 was 0.003 µM.

Question: For Cc1nc(NCc2c(F)cccc2F)nc(N[C@@H]2C[C@H](CC#N)[C@@H](O)[C@H]2O)c1-c1nc2c(C3CC3)nccc2s1 [Example 3569], which EC90 is on record?
Answer: The EC90 was 0.016 µM.

Question: For Cc1nc(NCC2CC2)nc(N[C@@H]2C[C@H](CS(=O)(=O)c3ccncc3)[C@@H](O)[C@H]2O)c1-c1nc2c(C)nccc2s1 [Example 3580], which EC90 is on record?
Answer: The EC90 was 0.012 µM.

Question: Which EC90 does the source give for CCOCCNc1nc(C)c(-c2nc3c(C4CC4)nccc3s2)c(N[C@@H]2C[C@H](CS(=O)(=O)CC)[C@@H](O)[C@H]2O)n1 [Example 3721] here?
Answer: The EC90 was 0.024 µM.

Question: Cc1nc(NCC2CC2)nc(N[C@@H]2C[C@H](CS(=O)(=O)c3ccccc3)[C@@H](O)[C@H]2O)c1-c1nc2c(C3CC3)nccc2s1 [Example 3744] was tested. Which EC90 did it give?
Answer: The EC90 was 0.044 µM.

Question: How did the EC90 turn out when Cc1nc(NCc2c(F)cccc2F)nc(N[C@@H]2C[C@H](CS(=O)(=O)c3cc(F)cc(F)c3)[C@@H](O)[C@H]2O)c1-c1nc2c(C)nccc2s1 [Example 3754] was run?
Answer: The EC90 was 0.015 µM.

Question: CCNC(=O)C(O)[C@H]1C[C@@H](Nc2nc(N[C@H](C)COCC)nc(C)c2-c2nc3c(C)nccc3s2)[C@H](O)[C@@H]1O (some centres unmarked) [Example 4025] was tested. Which EC90 did it give?
Answer: Its EC90 is 0.008 µM.

Question: For Cc1nc(NCC(F)(F)C(F)(F)F)nc(N[C@@H]2C[C@H](C(C)(C)O)[C@@H](O)[C@H]2O)c1-c1nc2c(C)nccc2s1 [Example 4346], which EC90 is on record?
Answer: The EC90 was 0.043 µM.

Question: For Cc1nc(N[C@H](C)c2ccc(OC(F)(F)F)cc2)nc(N[C@@H]2C[C@H](CO)[C@@H](O)[C@H]2O)c1-c1nc2c(N)nccc2s1 [Example 4413], which EC90 is on record?
Answer: Its EC90 is 0.121 µM.
